{"source": "patent US11752154B2", "about": "“Pharmaceutical compositions comprising sepiapterin and uses thereof” (PTC Therapeutics MP, Inc., priority 2017, dated 2023)", "key": {"[1]": {"experiment": "Determination of BH4 and sepiapterin levels in plasma, liver, kidney and urine after sepiapterin or BH4 (Example 4)", "type": "in vivo", "details": "for kidney, liver and urine exposure to BH4 versus dose level: 20, 60 or 180 mg/kg", "procedure": "Animals were administered the test items, sepiapterin or BH4, at dose levels of 20, 60 or 180 mg/kg. Blood, liver, kidney and urine samples (where possible) were collected from 3 animals/timepoints/group on the day of dosing at 0 (pre-dose, controls only), 0.5, 1, 2, 4, and 8 hours post-dose. Samples were assayed for sepiapterin or BH4 (not quantified in plasma) and non-compartmental pharmacokinetic analysis was performed."}, "[2]": {"experiment": "Stability analysis of salts and/or co-crystals of sepiapterin (Example 7)", "type": "physicochemical", "details": "25° C./60% RH and 40° C./75% RH, two weeks", "procedure": "The stability of the prepared salts and/or co-crystals was analyzed after […] at 25° C. and 60% relative humidity and 40° C. and 75% relative humidity. […] None of the phosphate, tartrate, or nicotinate salts and/or co-crystals underwent a form change during the stability testing, and each of them retained greater than 97% purity over the two weeks of the study. In fact, both the tartrate and nicotinate both retained greater than 99% purity."}, "[3]": {"experiment": "Kinetic solubility and disproportionation of sepiapterin salts and/or co-crystals in water and Medisca Oral Mix (Example 8)", "type": "physicochemical", "details": "for Solubility / Form change / Purity (area %) / solubility at 1 hr / solubility at 4 hr / solubility at 24 hr: RT; for Solubility / solubility at 1 hr / solubility at 4 hr / solubility at 24 hr: calculated using freebase, target conc. ~7 mg/mL; for Form change: residual solids by XRPD; for Purity (area %): supernatant, for reference only; for form of residual solids: water and Medisca Oral Mix, after 1 hour; for solubility at 1 hr / solubility at 4 hr / solubility at 24 hr: thermodynamic from solid", "procedure": "The kinetic solubility was evaluated for nicotinate, phosphate, L-tartrate, and fumarate salts and/or co-crystals of sepiapterin in water and Medisca Oral Mix. X-ray powder diffraction (XRPD) was performed for the residual solids to identify form change/disproportionation. Solids were suspended into the media with target conc. of ˜7 mg/mL (calculated by freebase). The suspensions were agitated on a rolling incubator at 25 rpm for 1, 4 and 24 hrs. At each time point, 1 mL of the suspension was pipetted out for centrifugation at 10000 rpm (2 min) and filtration through 0.45 μm membrane to obtain supernatant for HPLC solubility and pH tests, the residual solids were analyzed by XRPD."}, "[4]": {"details": "Medisca Oral Mix, 1 hr, listed as L-tartrate salt and/or co-crystal"}, "[5]": {"details": "Water, 1 hr, listed as L-tartrate salt and/or co-crystal"}, "[6]": {"details": "Water, 4 hr, listed as L-tartrate salt and/or co-crystal"}, "[7]": {"details": "Water, 24 hr, listed as L-tartrate salt and/or co-crystal"}, "[8]": {"details": "Medisca Oral Mix, 24 hr, listed as phosphate salt and/or co-crystal"}, "[9]": {"details": "Water, 1 hr, listed as phosphate salt and/or co-crystal"}, "[10]": {"details": "Water, 4 hr, listed as phosphate salt and/or co-crystal"}, "[11]": {"details": "Water, 24 hr, listed as phosphate salt and/or co-crystal"}}, "data": [{"molecule": "C[C@H](O)[C@H](O)[C@H]1CNc2nc(N)[nH]c(=O)c2N1", "note": "[BH4, tetrahydrobiopterin, reference compound]", "values": [{"measurement": "kidney, liver and urine exposure to BH4 versus dose level", "setting": "[1]", "value": "decreased as the dose level increased"}]}, {"molecule": "C[C@H](O)C(=O)C1=Nc2c(nc(N)[nH]c2=O)NC1", "note": "[L-Tartrate]", "values": [{"measurement": "form change during the stability testing", "setting": "[2]", "value": "None"}, {"measurement": "Solubility", "setting": "[3]; [4]", "value": 2000, "unit": "µg/mL"}, {"measurement": "Solubility", "setting": "[3]; [5]", "value": 1600, "unit": "µg/mL"}, {"measurement": "Solubility", "setting": "[3]; [6]", "value": 1800, "unit": "µg/mL"}, {"measurement": "Solubility", "setting": "[3]; [7]", "value": 1800, "unit": "µg/mL"}, {"measurement": "Form change", "setting": "[3]; Medisca Oral Mix, 1 hr, ** = low crystallinity, listed as L-tartrate salt and/or co-crystal", "value": "Yes"}, {"measurement": "Form change", "setting": "[3]; Medisca Oral Mix, 4 hr, ** = low crystallinity, listed as L-tartrate salt and/or co-crystal", "value": "Yes"}, {"measurement": "Form change", "setting": "[3]; Medisca Oral Mix, 24 hr, ** = low crystallinity, listed as L-tartrate salt and/or co-crystal", "value": "Yes"}, {"measurement": "Form change", "setting": "[3]; [5]", "value": "Yes"}, {"measurement": "Form change", "setting": "[3]; [6]", "value": "Yes"}, {"measurement": "Form change", "setting": "[3]; [7]", "value": "Yes"}, {"measurement": "Purity (area %)", "setting": "[3]; [4]", "value": 99.68, "unit": "area %"}, {"measurement": "Purity (area %)", "setting": "[3]; Medisca Oral Mix, 4 hr, listed as L-tartrate salt and/or co-crystal", "value": 99.54, "unit": "area %"}, {"measurement": "Purity (area %)", "setting": "[3]; Medisca Oral Mix, 24 hr, listed as L-tartrate salt and/or co-crystal", "value": 95.67, "unit": "area %"}, {"measurement": "Purity (area %)", "setting": "[3]; [5]", "value": 99.34, "unit": "area %"}, {"measurement": "Purity (area %)", "setting": "[3]; [6]", "value": 99.07, "unit": "area %"}, {"measurement": "Purity (area %)", "setting": "[3]; [7]", "value": 95.61, "unit": "area %"}, {"measurement": "form of residual solids", "setting": "[3]", "value": "converted to freebase"}]}, {"molecule": "C[C@H](O)C(=O)C1=Nc2c(nc(N)[nH]c2=O)NC1", "note": "[Nicotinate]", "values": [{"measurement": "form change during the stability testing", "setting": "[2]", "value": "None"}, {"measurement": "solubility at 1 hr", "setting": "[3]; Medisca Oral Mix, aqueous with cosolvent or surfactant or cyclodextrin, 1 hr", "value": 2600, "unit": "µg/mL"}, {"measurement": "solubility at 4 hr", "setting": "[3]; Medisca Oral Mix, aqueous with cosolvent or surfactant or cyclodextrin, 4 hr", "value": 3100, "unit": "µg/mL"}, {"measurement": "solubility at 24 hr", "setting": "[3]; Medisca Oral Mix, aqueous with cosolvent or surfactant or cyclodextrin, 24 hr", "value": 3500, "unit": "µg/mL"}, {"measurement": "Form change", "setting": "[3]; Medisca Oral Mix, 1 hr, ** = low crystallinity, listed as nicotinate salt and/or co-crystal", "value": "Yes"}, {"measurement": "Form change", "setting": "[3]; Medisca Oral Mix, 4 hr, ** = low crystallinity, listed as nicotinate salt and/or co-crystal", "value": "Yes"}, {"measurement": "Form change", "setting": "[3]; Medisca Oral Mix, 24 hr, ** = low crystallinity, listed as nicotinate salt and/or co-crystal", "value": "Yes"}, {"measurement": "Form change", "setting": "[3]; Water, 1 hr, listed as nicotinate salt and/or co-crystal", "value": "Yes"}, {"measurement": "Form change", "setting": "[3]; Water, 4 hr, listed as nicotinate salt and/or co-crystal", "value": "Yes"}, {"measurement": "Form change", "setting": "[3]; Water, 24 hr, listed as nicotinate salt and/or co-crystal", "value": "Yes"}, {"measurement": "form of residual solids", "setting": "[3]", "value": "converted to freebase"}, {"measurement": "solubility at 1 hr", "setting": "[3]; water, 1 hr", "value": 1500, "unit": "µg/mL"}, {"measurement": "solubility at 4 hr", "setting": "[3]; water, 4 hr", "value": 2300, "unit": "µg/mL"}, {"measurement": "solubility at 24 hr", "setting": "[3]; water, 24 hr", "value": 1800, "unit": "µg/mL"}]}, {"molecule": "C[C@H](O)C(=O)C1=Nc2c(nc(N)[nH]c2=O)NC1", "note": "[Phosphate]", "values": [{"measurement": "form change during the stability testing", "setting": "[2]", "value": "None"}, {"measurement": "Solubility", "setting": "[3]; [8]", "value": 2100, "unit": "µg/mL"}, {"measurement": "Solubility", "setting": "[3]; [9]", "value": 1700, "unit": "µg/mL"}, {"measurement": "Solubility", "setting": "[3]; [10]", "value": 2000, "unit": "µg/mL"}, {"measurement": "Solubility", "setting": "[3]; [11]", "value": 1900, "unit": "µg/mL"}, {"measurement": "Form change", "setting": "[3]; Medisca Oral Mix, 1 hr, ** = low crystallinity, listed as phosphate salt and/or co-crystal", "value": "Yes**"}, {"measurement": "Form change", "setting": "[3]; Medisca Oral Mix, 4 hr, ** = low crystallinity, listed as phosphate salt and/or co-crystal", "value": "Yes**"}, {"measurement": "Form change", "setting": "[3]; Medisca Oral Mix, 24 hr, ** = low crystallinity, listed as phosphate salt and/or co-crystal", "value": "Yes**"}, {"measurement": "Form change", "setting": "[3]; [9]", "value": "Yes"}, {"measurement": "Form change", "setting": "[3]; [10]", "value": "Yes"}, {"measurement": "Form change", "setting": "[3]; [11]", "value": "Yes"}, {"measurement": "Purity (area %)", "setting": "[3]; Medisca Oral Mix, 1 hr, listed as phosphate salt and/or co-crystal", "value": 99.23, "unit": "area %"}, {"measurement": "Purity (area %)", "setting": "[3]; Medisca Oral Mix, 4 hr, listed as phosphate salt and/or co-crystal", "value": 98.95, "unit": "area %"}, {"measurement": "Purity (area %)", "setting": "[3]; [8]", "value": 87.63, "unit": "area %"}, {"measurement": "Purity (area %)", "setting": "[3]; [9]", "value": 89.92, "unit": "area %"}, {"measurement": "Purity (area %)", "setting": "[3]; [10]", "value": 89.52, "unit": "area %"}, {"measurement": "Purity (area %)", "setting": "[3]; [11]", "value": 82.64, "unit": "area %"}, {"measurement": "form of residual solids", "setting": "[3]", "value": "converted to freebase"}]}, {"molecule": "C[C@H](O)C(=O)C1=Nc2c(nc(N)[nH]c2=O)NC1", "note": "[sepiapterin]", "values": [{"measurement": "kidney, liver and urine exposure to BH4 versus dose level", "setting": "[1]", "value": "decreased as the dose level increased"}, {"measurement": "kidney BH4 Cmax following sepiapterin administration versus BH4 alone", "setting": "[1]; except at the high-dose", "value": "similar"}, {"measurement": "secondary peak of absorption (plasma sepiapterin)", "setting": "[1]; low- and mid-dose levels, post-dose", "value": 8, "unit": "h"}, {"measurement": "sepiapterin exposure amongst the analyzed matrices", "setting": "[1]; plasma, liver, kidney, urine", "value": "highest in urine"}, {"measurement": "dose proportionality of circulating sepiapterin exposure", "setting": "[1]; plasma, entire dose range", "value": "much greater than dose proportional"}, {"measurement": "time of maximum sepiapterin plasma concentrations", "setting": "[1]; post-dose, sepiapterin 20, 60 or 180 mg/kg", "value": "30 minutes or 2 hours"}, {"measurement": "sepiapterin detected in the liver and kidney", "setting": "[1]; sepiapterin 20, 60 or 180 mg/kg", "value": "only at 30 minutes post-dose and only in the liver for the mid- or high-dose"}, {"measurement": "dose proportionality of sepiapterin exposure", "setting": "[1]; urine, liver and kidney, entire dose range", "value": "less than dose proportional"}]}]}
